“Also recorded” adds a separate entry of the source.
Key:
HEK cells = experiment: Membrane incorporation of Rubpy-C17 analogues; assay type: cell-based; conditions: FIGS. 6A-6C, 7A-7B
Text: In some examples, RubpyC17 can be changed to provide a non-toxic, faster, and highly reversible system that imparts light sensitivity in multiple biological systems. In some embodiments, changing of bipyridine substituents (as shown in as illustrated in FIG. 3) can result in a Ru^3+/2+ reduction potential dynamic range of several hundred millivolts. […] In some examples, the carboxylic acid substituents probe the mechanistic role of charge in the photovoltaic nanoswitch system in addition to the role of the reduction potential. FIGS. 5A-5D illustrates an embodiment of various substituents in place of RubpyC17 in HEK cells. For example, FIG. 5A illustrates TMbpyRubpyC17(PF6) substituted for RubpyC17; FIG. 5B illustrates TMbpyRubpyC17(Cl) substituted for RubpyC17; FIG. 5C illustrates COOHbpyRubpyC17(Na) substituted for RubpyC17; and FIG. 5C illustrates COOHbpyRubpyC17(tBu4N+) substituted for RubpyC17.
In some examples, the RubpyC17 molecule can be configured for non-specific targeting and optimized membrane incorporation of photoactive molecular artificial retinas (“MARs”).
In some embodiments, membrane incorporation can be an important characteristic of the current system. In some embodiments, changing the counter ion identity of Rubpy-C17 can help to change membrane incorporation properties. […] FIG. 7C illustrates the effect that a treatment of 1 μM of Rubpy-Oleic Acid has on HEK cells while FIG. 7D illustrates the effect that a treatment of 10 μM of Rubpy-Linoleic Acid has on HEK cells.

HEK293T cells = experiment: Effect of PF6:Cl counter ion ratio of Rubpy-C17 on HEK293T cells; assay type: cell-based; conditions: for membrane incorporation: 10 minutes; for Comments (compound stability): degradation seen after two months
Description: In some embodiments, the 20 mg of Rubpy-C17 is stored in −20° C. with desiccant in the dark. […] 253 μl of DMSO is then added into the original bottle containing Rubpy-C17 to make 100 mM stock solution. In some embodiments, the stock solution is aliquot and stored in −20° C. with desiccant in the dark.
In some examples, on the day before or on, the same day of the experiment, the following 2.5 mM external solution is prepared using the following steps. The external solution is warmed up to 37° C. For […] of the external solution, 0.176 grams of absorbic acid was added. Another 240 μL 5M NaOH was added to adjust the pH to between about 7.2-7.4. The absorbic solution can then be filtered through a 0.2 μm filter. The solution is then stored in the dark in 4° C. In some examples, the solution must be used within one week.
The 100 mM of Rubpy solution is first thawed from −20° C. 100 mM Rubpy is then diluted to 10 mM Rubpy: 2 μL 100 mM Rubpy+18 μL DMSO. In some examples, this is vortexted to mix and then centrifuged down with a small bench-top. The culture, medium is aspirated and the cells are rinsed with external solution several times. The external solution can then be aspirated. In some examples, enough of the external solution is left on the cells to prevent it from drying. 500 μL of external solution with 2.5 mM of ascorbic acid can then be added.
In some examples, 1 μL of 10 mM of Rubpy to […] of external solution with 2.5 mM ascorbic acid and mixed well. This should produce a final concentration of 10 μM of Rubpy with 0.1% DMSO. This mixed solution is then added to the above referenced cells and incubated for 10 minutes.
The solution can then be aspirated from the plate and rinsed with regular external solution several times. 2 mL of external solution is added to 2.5 mM ascorbic acid for recording. For each plate, a baseline control is taken by recording the first cell before performing any light-stimulating protocol. The light-stimulus can include 10-40 s in duration and bandpassed at 455-495 nm (blue light).
As discussed above, the mixture a 10 μM of RubpyC17 solution was placed in 10 HEK293T cells.

[1] = Time-resolved luminescence and electron transfer of D-B-A complex; assay type: physicochemical; conditions: degassed dichloromethane, excited at 355 nm, monitored at 560 nm
Description: Time-resolved emission spectroscopy was used to characterize the MLCT excited state of the D-B-A complex (see FIGS. 24A and 24B). Luminescence decay kinetics were recorded in degassed dichloromethane. The D-B-A complex was excited at 355 nm with an 8-ns laser pulse and luminescence was monitored at 560 nm. […] For comparison, the MLCT lifetime of the reference complex, [Re(CO)3(bpy)(py)]+, determined under identical experimental conditions, is 550 ns.
Self-association often leads to enhanced quenching, due to the formation of aggregates with short intermolecular donor-acceptor distances.
While the rate of intramolecular electron transfer is concentration independent, intermolecular quenching processes vary predictably with concentration. As such, it is possible to separate the two quenching mechanisms and obtain rate constants for each. Time-resolved luminescence measurements at a series of D-B-A concentrations allow a second order intermolecular quenching rate to be determined. As the concentration was increased, shorter lifetimes were recorded in both dichloromethane and acetonitrile. […]
Intramolecular electron transfer may also proceed through a through-space coupling mechanism. […] If β values in this range are used, the through-solvent intramolecular electron transfer rate is predicted to fall between 10^4 and 10^6 s^−1, which is competitive with calculated through-bond tunneling rates.

chromaffin cells = experiment: Cell-attached patch test for membrane perforation; assay type: cell-based, mouse; conditions: in patch pipette, RubpyC17 18 μM, 10 min, amphotericin B within 5 min
Text: FIGS. 21A-21H depict data from various experiments related to characteristics of RubpyC17-loaded cells. […] Inset images shown to the right of trace confirmed proper integration of RubpyC17 in patched cells. FIGS. 21C-21E show the light-induced action potential firing in chromaffin cells was not due to biophysical changes in voltage-gated ion channels as there were no significant changes in current-voltage relationships (21C-21D) nor in steady-state activation curve (21E) in RubpyC17-loaded chromaffin cells before (open circle) or during (open circle) light illumination. […] Peak inward currents from each stimulation jump were plotted against corresponding stimulating voltages (n=6). […] Data from representative cell is shown (n=5). […] Currents resulting from capacitor-like behavior of chromaffin cell membranes during hyperpolarizing jumps to −85 mV from a resting membrane potential of −80 mV were recorded 5 min following giga-seal formation for amphoterecin B (bottom trace) or 10 min following giga-seal formation for RubpyC17 (top trace).
Finally, to test whether illumination of RubpyC17 incorporated in cell membranes causes nonspecific membrane poration or other damage, 18 μM RubpyC17 was loaded inside a patch pipette and attached to a cell (gigaseal formation) in the cell-attached configuration. This is the same configuration used routinely for perforated-patch recording. […]

Nav1.6 = Nav1.6 (Homo sapiens, UniProt Q9UQD0); conditions: extracellular loop S1-S2 and S3-S4 in domain II; cited from earlier work
Chain of Nav1.6 (Q9UQD0 whole entry, the tested form may be a part): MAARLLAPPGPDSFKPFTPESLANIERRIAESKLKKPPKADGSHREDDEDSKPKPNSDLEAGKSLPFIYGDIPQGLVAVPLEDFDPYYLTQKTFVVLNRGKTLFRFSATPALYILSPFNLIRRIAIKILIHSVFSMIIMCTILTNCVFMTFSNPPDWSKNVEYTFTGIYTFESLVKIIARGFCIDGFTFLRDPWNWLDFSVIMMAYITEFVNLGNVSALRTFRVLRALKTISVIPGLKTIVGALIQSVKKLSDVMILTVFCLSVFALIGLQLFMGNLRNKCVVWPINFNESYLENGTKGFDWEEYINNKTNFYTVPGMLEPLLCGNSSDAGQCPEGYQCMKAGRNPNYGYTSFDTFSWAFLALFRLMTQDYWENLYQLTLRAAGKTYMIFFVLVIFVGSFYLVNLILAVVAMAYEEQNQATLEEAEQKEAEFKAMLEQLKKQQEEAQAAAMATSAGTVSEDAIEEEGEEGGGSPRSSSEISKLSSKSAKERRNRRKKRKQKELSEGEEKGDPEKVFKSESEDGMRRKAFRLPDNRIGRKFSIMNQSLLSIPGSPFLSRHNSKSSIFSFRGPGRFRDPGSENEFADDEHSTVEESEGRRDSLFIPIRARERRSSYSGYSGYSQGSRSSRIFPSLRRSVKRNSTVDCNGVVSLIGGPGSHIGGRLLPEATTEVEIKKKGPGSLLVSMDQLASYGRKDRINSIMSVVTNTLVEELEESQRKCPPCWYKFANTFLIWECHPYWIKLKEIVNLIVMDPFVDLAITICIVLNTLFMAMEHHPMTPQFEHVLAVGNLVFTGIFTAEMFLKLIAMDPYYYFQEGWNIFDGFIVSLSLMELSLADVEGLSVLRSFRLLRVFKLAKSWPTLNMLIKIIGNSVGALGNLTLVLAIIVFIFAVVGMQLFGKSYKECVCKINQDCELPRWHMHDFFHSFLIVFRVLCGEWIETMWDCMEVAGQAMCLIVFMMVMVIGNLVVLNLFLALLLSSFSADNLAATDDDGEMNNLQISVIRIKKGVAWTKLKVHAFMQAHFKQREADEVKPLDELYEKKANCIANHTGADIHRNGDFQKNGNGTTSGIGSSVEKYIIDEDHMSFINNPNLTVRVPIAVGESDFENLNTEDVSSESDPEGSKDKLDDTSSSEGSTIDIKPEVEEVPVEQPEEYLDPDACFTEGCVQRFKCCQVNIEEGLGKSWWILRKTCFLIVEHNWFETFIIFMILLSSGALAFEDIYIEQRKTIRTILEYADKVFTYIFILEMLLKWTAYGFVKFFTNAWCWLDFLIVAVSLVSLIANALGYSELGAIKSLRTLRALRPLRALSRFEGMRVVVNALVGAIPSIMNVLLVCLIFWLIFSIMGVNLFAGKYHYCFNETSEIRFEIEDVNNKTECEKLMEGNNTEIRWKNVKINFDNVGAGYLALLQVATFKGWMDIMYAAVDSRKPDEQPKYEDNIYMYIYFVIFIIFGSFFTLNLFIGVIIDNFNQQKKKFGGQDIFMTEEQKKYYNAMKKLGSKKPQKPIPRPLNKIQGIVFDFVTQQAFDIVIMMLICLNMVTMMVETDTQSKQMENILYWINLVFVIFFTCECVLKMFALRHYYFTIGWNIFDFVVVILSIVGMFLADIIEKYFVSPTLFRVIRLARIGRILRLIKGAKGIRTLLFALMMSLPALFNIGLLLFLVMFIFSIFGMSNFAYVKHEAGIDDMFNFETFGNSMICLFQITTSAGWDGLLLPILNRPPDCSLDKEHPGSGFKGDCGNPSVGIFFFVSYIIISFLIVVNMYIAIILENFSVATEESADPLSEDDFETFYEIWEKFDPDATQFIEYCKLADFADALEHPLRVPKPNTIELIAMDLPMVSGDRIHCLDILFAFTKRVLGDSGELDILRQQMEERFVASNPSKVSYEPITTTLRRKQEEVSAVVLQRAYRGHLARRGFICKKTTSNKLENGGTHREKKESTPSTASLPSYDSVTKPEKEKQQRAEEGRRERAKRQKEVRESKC

CCCCCCCCCCCCCCCCCc1ccnc(-c2cc(C)ccn2)c1.[Cl-].[Cl-].[Ru+2].c1ccc(-c2ccccn2)nc1.c1ccc(-c2ccccn2)nc1 [PF6:Cl 0:1]
membrane incorporation (HEK cells): exceptional membrane incorporation
Cell Death (HEK293T cells; 10 μM, HEK293T cells): cell death was observed
membrane incorporation (HEK293T cells; 10 μM, HEK293T cells): even incorporation
membrane incorporation (HEK293T cells; 10 μM, HEK293T cells, listed as Rubpy-C17 with only CL Counter ions): good membrane incorporation was initially observed
Comments (compound stability) (HEK293T cells): subsequent degradation was observed after two months; also recorded: Unstable,
Comments (compound stability) (HEK293T cells; listed as Rubpy-C17 with only CL Counter ions): compound degradation was seen subsequently after two months

CCCCCCCC/C=C\CCCCCCCC(=O)Nc1cc2cccnc2c2ncccc12.[Ru+2].c1ccc(-c2ccccn2)nc1.c1ccc(-c2ccccn2)nc1 [Ruphen-C18:1]
membrane incorporation (HEK cells): exceptional membrane incorporation; also recorded: excellent membrane incorporation

CCCCC/C=C\C/C=C\CCCCCCCC(=O)Nc1cc2cccnc2c2ncccc12.[Ru+2].c1ccc(-c2ccccn2)nc1.c1ccc(-c2ccccn2)nc1 [Ruphen-C18:2]
membrane incorporation (HEK cells): excellent membrane incorporation

[C-]#[O+].[C-]#[O+].[C-]#[O+].[Re+].c1ccc(-c2ccccn2)nc1.c1ccncc1 [[Re(CO)3(bpy)(py)]+]
luminescence (MLCT) lifetime [1]: 550 ns

C[C@@H]1[C@H](O)[C@@H](C)/C=C/C=C/C=C/C=C/C=C/C=C/C=C/[C@H](O[C@@H]2O[C@H](C)[C@@H](O)[C@H](N)[C@@H]2O)C[C@@H]2O[C@](O)(C[C@@H](O)C[C@@H](O)[C@H](O)CC[C@@H](O)C[C@@H](O)CC(=O)O[C@H]1C)C[C@H](O)[C@H]2C(=O)O [amphotericin B, reference compound]
capacitive charging transient (membrane perforation) (chromaffin cells): sizable capacitive charging transient

CCCCCCCCCCCCCCCCCc1ccnc(-c2cc(C)ccn2)c1.Cc1cnc(-c2cc(C)c(C)cn2)cc1C.Cc1cnc(-c2cc(C)c(C)cn2)cc1C.[Ru+2] [tetramethyl-substituted bpy Rubpy-C17]
membrane incorporation (HEK cells): does not evenly incorporate

CssII
binding affinity (Nav1.6): nanomolar affinity

— patent US10232043B2, “Photoactivated molecules for light-induced modulation of the activity of electrically excitable cells and methods of using the same” (UNIVERSITY OF SOUTHERN CALIFORNIA, priority 2015, dated 2019)
